Assay results: patent US10519114B2, “Peptidomimetics and methods of using the same” (The Regents of the University of Michigan, priority 2016, dated 2019)

Key:
[1] = molecular target: T1, rat μ (C6-MOR) opioid receptor (Rattus norvegicus, UniProt P33535); assay: Radioligand binding assay, [3H]diprenorphine displacement, MOR; settings: displacement of 0.2 nM [3H]diprenorphine, C6-MOR membranes; mean ± standard error
T1 construct: expressed in transfected cells
Procedure: (§1) In Vitro Pharmacology-Cell Lines and Membrane Preparations. All tissue culture reagents were purchased from Gibco Life Sciences (Grand Island, N.Y., U.S.). C6-rat glioma cells stably transfected with a rat μ (C6-MOR) or rat δ (C6-DOR) opioid receptor20 and Chinese hamster ovary (CHO) cells stably expressing a human K (CHO-KOR) opioid receptor21 were used for all in vitro assays. Cells were grown to confluence at 37° C. in 5% CO2 in Dulbecco's modified Eagle medium containing 10% fetal bovine serum and 5% penicillin/streptomycin. Membranes were prepared by washing confluent cells three times with ice cold phosphate buffered saline (0.9% NaCl, 0.61 mM Na2HPO4, 0.38 mM KH2PO4, pH 7.4). Cells were detached from the plates by incubation in warm harvesting buffer (20 mM HEPES, 150 mM NaCl, 0.68 mM EDTA, pH 7.4) and pelleted by centrifugation at 200 g for 3 min. The cell pellet was suspended in ice-cold 50 mM Tris-HCl buffer, pH 7.4, and homogenized with a Tissue Tearor (Biospec Products, Inc., Bartlesville, Okla., U.S.) for 20 s at setting 4. The homogenate was centrifuged at 20 000 g for 20 min at 4° C., and the pellet was rehomogenized in 50 mM Tris-HCl with a Tissue Tearor for 10 s at setting 2, followed by recentrifugation. The final pellet was resuspended in 50 mM Tris-HCl and frozen in aliquots at […]. Protein concentration was determined via Bradford assay using bovine serum albumin as the standard.
(§2) Radioligand Binding Assays. Radioactive compounds were purchased from Perkin-Elmer (Waltham, Mass., U.S.). Opioid ligand binding assays were performed using competitive displacement of 0.2 nM [3H]diprenorphine (250 μCi, 1.85 TBq/mmol) by the test compound from membrane preparations containing opioid receptors. The assay mixture, containing membrane suspension (20 μg protein/tube) in 50 mM Tris-HCl buffer (pH 7.4), [3H]diprenorphine, and various concentrations of test peptide, was incubated at room temperature for 1 h to allow binding to reach equilibrium. The samples were rapidly filtered through Whatman GF/C filters using a Brandel harvester (Brandel, Gaithersburg, Md., U.S.) and washed three times with 50 mM Tris-HCl buffer. The radioactivity retained on dried filters was determined by liquid scintillation counting after saturation with EcoLume liquid scintillation cocktail in a Wallac 1450 MicroBeta (Perkin-Elmer, Waltham, Mass., U.S.). Nonspecific binding was determined using 10 μM naloxone. Inhibitory constant (Ki) values were calculated using nonlinear regression analysis to fit a logistic equation to the competition data using GraphPad Prism, version 5.01, for Windows (GraphPad Software Inc., La Jolla, Calif.). The results presented are the mean±standard error from at least three separate assays performed in duplicate.

[2] = molecular target: T2, human κ (CHO-KOR) opioid receptor (Homo sapiens, UniProt P41145); assay: Radioligand binding assay, [3H]diprenorphine displacement, KOR; settings: displacement of 0.2 nM [3H]diprenorphine, CHO-KOR membranes; mean ± standard error
T2 construct: expressed in transfected cells
Procedure: as §1, §2

[3] = molecular target: T3, rat δ (C6-DOR) opioid receptor (Rattus norvegicus, UniProt P33533); assay: Stimulation of [35S]GTPγS binding, DOR; format: biochemical; settings: for Emax / % stimulation DOR: [35S]GTPγS maximal stimulation compared with 10 μM standard DPDPE; for EC50 / EC50 (nm) DOR: [35S]GTPγS binding, C6-DOR membranes, mean ± standard error
T3 construct: expressed in transfected cells
Procedure: as §1
(§3) Stimulation of [^35S]GTPyS Binding. Agonist stimulation of [35S]guanosine 5′-O-[γ-thio]triphosphate ([^35S]GTPγS, 1250 Ci, 46.2 TBq/mmol) binding was measured as described previously Briefly, membranes (10-20 μg of protein/tube) were incubated 1 h at room temperature in GTPyS buffer (50 mM Tris-HCl, 100 mM NaCl, 5 mM MgCl2, pH 7.4) containing 0.1 nM [^35S]GTPγS, 30 μM guanosine diphosphate (GDP), and varying concentrations of test peptides. Peptide stimulation of [^35S]GTPyS was compared with 10 μM standard compounds [D-Ala^2,N-MePhe^4,Gly-ol]encephalin (DAMGO) at MOR, D-Pen^2,5-enkephalin (DPDPE) at DOR, or […] at KOR. The reaction was terminated by rapidly filtering through GF/C filters and washing 10 times with GTPyS buffer, and retained radioactivity was measured as described above. The results presented are the mean±standard error from at least three separate assays performed in duplicate; maximal stimulation was determined using nonlinear regression analysis with GraphPad Prism (GraphPad Software Inc., La Jolla, Calif.).

[4] = molecular target: T2, human κ (CHO-KOR) opioid receptor; assay: Stimulation of [35S]GTPγS binding, KOR; format: biochemical; settings: for EC50 / EC50 (nm) KOR: [35S]GTPγS binding, CHO-KOR membranes, mean ± standard error; for Emax / % stimulation KOR: [35S]GTPγS maximal stimulation compared with 10 μM standard U-69,593
Procedure: as §1, §3

[5] = molecular target: T3, rat δ (C6-DOR) opioid receptor; assay: Radioligand binding assay, [3H]diprenorphine displacement, DOR; settings: displacement of 0.2 nM [3H]diprenorphine, C6-DOR membranes; mean ± standard error
Procedure: as §1, §2

[6] = molecular target: T1, rat μ (C6-MOR) opioid receptor; assay: Stimulation of [35S]GTPγS binding, MOR; format: biochemical; settings: for EC50: [35S]GTPγS binding, C6-MOR membranes, mean ± standard error; for Emax: [35S]GTPγS maximal stimulation compared with 10 μM standard DAMGO
Procedure: as §1, §3

T3 sequence (P33533 whole entry): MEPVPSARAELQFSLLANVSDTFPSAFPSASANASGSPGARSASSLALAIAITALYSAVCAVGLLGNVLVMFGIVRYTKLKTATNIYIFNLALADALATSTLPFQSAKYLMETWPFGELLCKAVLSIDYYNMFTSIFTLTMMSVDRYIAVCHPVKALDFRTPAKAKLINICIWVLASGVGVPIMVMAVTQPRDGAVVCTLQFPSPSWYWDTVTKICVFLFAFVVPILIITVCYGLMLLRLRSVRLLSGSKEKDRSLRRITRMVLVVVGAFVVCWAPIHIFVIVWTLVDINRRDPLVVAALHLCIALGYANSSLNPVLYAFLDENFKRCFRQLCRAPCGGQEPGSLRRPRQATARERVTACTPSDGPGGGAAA
T2 sequence (P41145 whole entry): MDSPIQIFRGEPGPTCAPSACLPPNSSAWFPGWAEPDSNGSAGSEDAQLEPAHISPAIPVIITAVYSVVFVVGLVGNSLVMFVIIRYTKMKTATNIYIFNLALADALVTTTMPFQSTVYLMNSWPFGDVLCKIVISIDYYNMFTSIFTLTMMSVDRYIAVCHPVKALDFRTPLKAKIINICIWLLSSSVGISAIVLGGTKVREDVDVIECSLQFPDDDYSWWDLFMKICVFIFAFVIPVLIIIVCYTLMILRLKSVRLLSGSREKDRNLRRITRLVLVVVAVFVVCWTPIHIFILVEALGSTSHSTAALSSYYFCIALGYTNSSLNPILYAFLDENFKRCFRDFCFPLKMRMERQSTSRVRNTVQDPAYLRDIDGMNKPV
T1 sequence (P33535 whole entry): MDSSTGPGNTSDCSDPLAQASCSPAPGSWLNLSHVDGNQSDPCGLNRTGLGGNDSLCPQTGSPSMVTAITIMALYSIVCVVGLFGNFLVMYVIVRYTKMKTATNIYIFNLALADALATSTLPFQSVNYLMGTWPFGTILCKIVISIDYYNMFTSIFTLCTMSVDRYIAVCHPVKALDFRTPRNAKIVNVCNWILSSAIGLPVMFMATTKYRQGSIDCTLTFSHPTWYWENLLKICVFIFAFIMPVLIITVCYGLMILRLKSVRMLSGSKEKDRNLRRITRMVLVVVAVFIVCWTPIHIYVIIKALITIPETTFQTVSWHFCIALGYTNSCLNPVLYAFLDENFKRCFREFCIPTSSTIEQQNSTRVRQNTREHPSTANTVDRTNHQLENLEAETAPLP

Row | SMILES | Ki [1] [nM] | Ki [2] [nM] | Emax [3] [%] | EC50 [4] [nM] | Emax [4] [%] | Ki [5] [nM] | EC50 [6] [nM] | Emax [6] [%] | EC50 [3] [nM] | EC50 (nm) DOR [3] | % stimulation DOR [3] | EC50 (nm) KOR [4] | % stimulation KOR [4]
1 | CC(=O)N1CC[C@@H](NC(=O)[C@@H](N)Cc2c(C)cc(O)cc2C)c2cc(Oc3ccc(Cl)cc3)ccc21 [Compound 1026] | 0.1 ± 0.03 | 45.5 ± 6.67 | 0 | 1820 | 47.3 | 3.1 ± 0.69 | 7.01 ± 1.49 | 61.2 ± 6.93 |  |  |  |  | 
2 | CC(=O)N1CC[C@@H](NC(=O)[C@@H](N)Cc2c(C)cc(O)cc2C)c2cc(Oc3cccc(Cl)c3)ccc21 [Compound 1027] | 0.05 ± 0.01 | 21 | 7.42 ± 5.57 | 791 | 55.1 | 5.03 ± 0.29 | 8.07 ± 4.81 | 72.2 ± 2.41 | 431 ± 216 |  |  |  | 
3 | Cc1cc(O)cc(C)c1C[C@H](N)C(=O)N[C@@H]1CCNc2ccc(Cc3c(Cl)cccc3Cl)cc21 [Compound 1032] | 0.08 ± 0.01 | 4.85 ± 0.66 |  |  | 0 | 4.61 ± 0.06 | 2040 | 33.6 |  | dns | dns |  | 
4 | Cc1cc(C(N)=O)cc(C)c1C[C@H](N)C(=O)N[C@@H]1CCNc2ccc(Cc3ccccc3)cc21 [Compound 1048] | 0.6 ± 0.12 | 170 ± 49.1 | 24.5 ± 3.25 |  |  | 32.3 ± 7.57 | 9.2 ± 4.58 | 97.9 ± 4.71 | 1590 ± 738 |  |  | dns | dns
5 | Cc1ccc2c(c1)CN(Cc1ccc3c(c1)[C@H](NC(=O)[C@@H](N)Cc1c(C)cc(O)cc1C)CCN3)CC2 [Compound 1049] | 0.17 ± 0.06 | 11.9 ± 6.13 |  |  |  | 23.3 ± 2.51 | 0.35 ± 0.11 | 111 ± 4.65 |  | dns | dns | dns | dns
6 | Cc1cc(O)cc(C)c1C[C@H](N)C(=O)N[C@@H]1CCNc2ccc(Cc3ccc4c(c3)OCCO4)cc21 [Compound 1050] | 0.35 ± 0.11 | 116 ± 65.1 |  |  |  | 5.48 ± 0.81 | 5.54 ± 0.12 | 87.5 ± 12 |  | dns | dns | dns | dns
7 | Cc1cc(O)cc(C)c1C[C@H](N)C(=O)N[C@@H]1CCNc2ccc(CN3CCC[C@H]4CCCC[C@@H]43)cc21 [Compound 1051] | 0.18 ± 0.03 | 7.03 ± 1.36 |  |  |  | 9.5 ± 1.22 | 1.22 ± 0.07 | 36.2 ± 8.14 |  | dns | dns | dns | dns
8 | Cc1cc(O)cc(C)c1C[C@H](N)C(=O)N[C@@H]1CCNc2ccc(S(=O)(=O)c3ccccc3)cc21 [Compound 1052] | 3.01 ± 1.87 | 26 ± 7.12 |  | 1310 | 38.5 | 2.92 ± 0.41 | 12.9 ± 1.35 | 68.9 ± 10.3 |  | dns | dns |  | 
9 | Cc1cc(O)cc(C)c1C[C@H](N)C(=O)N[C@@H]1CCNc2ccc(Sc3ccccc3)cc21 [Compound 1053] | 0.45 ± 0.11 | 10.8 ± 6.24 |  | 1120 | 22.4 | 5.08 ± 0.52 | 4.67 ± 1.44 | 51.6 ± 6.43 |  | dns | dns |  | 
10 | Cc1cc(O)cc(C)c1C[C@H](N)C(=O)N[C@@H]1CCNc2ccc(CN3CCc4ccc(F)cc4C3)cc21 [Compound 1054] | 0.17 ± 0.02 | 9.63 ± 0.4 |  | 108 |  | 16.7 ± 2.47 | 0.5 ± 0.05 | 105 ± 4.56 | 25.9 ± 16.9 |  | dns |  | dns
